Among the test systems are MALME-3M melanoma; HT29 colon; HCT-15 colon; SF-295 CNS; NCI-H226 lung; NCI-H23 lung; CCRF-CEM leukemia; NCI/ADR-RES ovarian; PC-3 prostate; HS 578T breast.
Holding throughout (assay): NCI tumour cell line growth inhibition, 48 h

The source of these data is PubChem BioAssay (NCI).

Values joined by “and” are separate entries in the source; they are usually repeats but may differ in a detail not shown here. Equal entries are not always repeated.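 Briefly, cells in 96-well plates were exposed to five compound concentrations for 48 h, and endpoints were estimated by linear interpolation. GI50 = concentration required for 50% inhibition of growth. TGI: total growth inhibition.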 Bounds are passed on as bounds.

`N#CCc1cccc(CC#N)c1Br`: the TGI in the test on MALME-3M melanoma, in the test on HT29 colon, in the test on HCT-15 colon, with SF-295 CNS, in the test with NCI-H226 lung and in the test with NCI-H23 lung was > 100 µM in each case. In the test with CCRF-CEM leukemia, the TGI is > 100 µM.

In the case of `C=C1CC[C@H]2C(C)=CC[C@H]3C(=C)C(=O)O[C@@H]3[C@@H]12`, the TGI in the test with MALME-3M melanoma, in the test on HT29 colon, in the test with HCT-15 colon, in the test with NCI/ADR-RES ovarian, in the test with SF-295 CNS and in the test with NCI-H226 lung was > 100 µM throughout. In addition, the TGI in the test on NCI-H23 lung, with PC-3 prostate and in the test on CCRF-CEM leukemia was > 100 µM throughout.

In the case of `COc1ccccc1NC(=O)C1=C(C)NC(C)=C(C(=O)Nc2ccccc2OC)C1c1ccco1`, the TGI with MALME-3M melanoma is > 100 µM; in the test with HS 578T breast, 9 µM; with HT29 colon it was 14.7 µM; in the test with HCT-15 colon, > 100 µM; with SF-295 CNS it was > 44.2 µM; with NCI-H226 lung, 33.1 µM. For the same molecule, the TGI in the test on NCI-H23 lung is 32.4 µM; with PC-3 prostate, > 100 µM; with CCRF-CEM leukemia, 59.8 µM.

As to `CC1(C)OC(=O)C(=C2CCC(C(=O)Nc3cccc(C(F)(F)F)c3)N2)C(=O)O1` (configuration not stated), the TGI in the test on MALME-3M melanoma, with HT29 colon, with HCT-15 colon, in the test on SF-295 CNS, in the test on NCI-H226 lung and in the test on NCI-H23 lung was > 100 µM throughout. The TGI with CCRF-CEM leukemia was > 100 µM.

With `COc1cc2c(c(OC)c1OC)C(=O)NCCC2`, the TGI in the test on MALME-3M melanoma, in the test on HT29 colon, with HCT-15 colon, with NCI/ADR-RES ovarian, in the test with SF-295 CNS and in the test on NCI-H226 lung was > 100 µM each time. In addition, the TGI in the test on NCI-H23 lung and with CCRF-CEM leukemia was > 100 µM in each case.

With `COc1cc2c3c(n(CCCNCCCNCCCN)c(=O)c2cc1OC)-c1cc2c(cc1C3=O)OCO2`, the GI50 is > 100 µM in the test with HS 578T breast; 48.6 µM in the test with HT29 colon; 73.6 µM in the test on HCT-15 colon; 40.6 µM with SF-295 CNS; > 100 µM with NCI-H226 lung; 13.5 µM with NCI-H23 lung. For the same molecule, in the test with CCRF-CEM leukemia, the GI50 was 35.1 µM. In addition, the TGI in the test with HS 578T breast, with HT29 colon, in the test on HCT-15 colon, in the test on SF-295 CNS, in the test with NCI-H226 lung and in the test on NCI-H23 lung was > 100 µM throughout. For the same molecule, in the test with CCRF-CEM leukemia, the TGI is > 100 µM.

Turning to `CN(C)CCN1CCc2c([nH]c3ccccc23)C1c1cccnc1` (configuration not stated), the TGI with HT29 colon, with HCT-15 colon, in the test on SF-295 CNS, in the test on NCI-H23 lung and in the test with CCRF-CEM leukemia was > 100 µM throughout.

Consider `COc1ccc(/C=C\c2cc(OC)c(OC)c(OC)c2)cc1`, for which the TGI was > 100 µM in the test with MALME-3M melanoma; 13.6 µM with HT29 colon; 0.000719 µM in the test on SF-295 CNS; 0.222 µM and 0.0693 µM with NCI-H226 lung; 0.0118 µM in the test with NCI-H23 lung; > 100 µM with CCRF-CEM leukemia.

With `COc1ccc(/C=N/NS(=O)(=O)c2ccccc2)cc1`, the TGI in the test with MALME-3M melanoma, in the test with HT29 colon, in the test on HCT-15 colon, with SF-295 CNS, with NCI-H226 lung and in the test on NCI-H23 lung was > 100 µM in each case. In the test on CCRF-CEM leukemia, the TGI is > 100 µM.

On to `Cc1ccc(S(=O)C(C)C(Cl)c2ccccc2)cc1` (configuration not stated), for which the TGI in the test on HT29 colon, in the test on HCT-15 colon, in the test on SF-295 CNS, in the test on NCI-H226 lung, in the test with NCI-H23 lung and in the test with CCRF-CEM leukemia was > 100 µM in each case.

As for `CN(C)c1ccc(C(O)C2=CC(=O)c3ccccc3C2=O)cc1` (configuration not stated), the GI50 in the test on MALME-3M melanoma is 24.2 µM; in the test with HS 578T breast, 0.509 µM; in the test with HCT-15 colon, 4.3 µM; in the test on NCI/ADR-RES ovarian, > 100 µM; in the test on SF-295 CNS it was 25.1 µM; in the test on NCI-H226 lung, 3.01 µM. In addition, in the test on NCI-H23 lung, the GI50 was 27.2 µM. Moreover, the TGI in the test with MALME-3M melanoma was 56.7 µM; with HS 578T breast it was > 100 µM; with HCT-15 colon, > 100 µM; in the test with NCI/ADR-RES ovarian, > 100 µM; in the test on SF-295 CNS it was 93.3 µM; with NCI-H226 lung, 14.2 µM. In addition, in the test with NCI-H23 lung, the TGI was determined as 97.5 µM.

Consider `Nc1ccccc1C#Cc1ccccc1C#Cc1cccs1`, for which the GI50 is 19.4 µM in the test on HT29 colon; 13.1 µM in the test on HCT-15 colon; 16 µM in the test on NCI/ADR-RES ovarian; 16.1 µM with SF-295 CNS; 17.7 µM in the test on NCI-H226 lung; 17.2 µM in the test on NCI-H23 lung. In addition, the GI50 with PC-3 prostate is 13.8 µM; in the test with CCRF-CEM leukemia, 19.9 µM. Besides, the TGI with HT29 colon is 49 µM; with HCT-15 colon, 33.5 µM; with NCI/ADR-RES ovarian, 30.7 µM; in the test on SF-295 CNS, 37.3 µM; in the test on NCI-H226 lung, 43.3 µM; in the test on NCI-H23 lung it was 34.1 µM. Also, the TGI was 33 µM in the test with PC-3 prostate and 70.1 µM with CCRF-CEM leukemia.

With `CCCCC1(C(NC(=O)c2ccccc2Cl)c2ccncc2)C(=O)N(c2ccccc2)N(c2ccccc2)C1=O` (configuration not stated), the TGI in the test on MALME-3M melanoma, in the test on HT29 colon, in the test with HCT-15 colon, in the test on SF-295 CNS, with NCI-H226 lung and in the test on NCI-H23 lung was > 100 µM throughout. Moreover, in the test on CCRF-CEM leukemia, the TGI is > 100 µM.

`Cc1cc(Cl)ccc1NC(=O)C1C(=O)N(c2ccc(Cl)cc2C)C(=O)/C1=N\NC(N)=S` (configuration not stated): the TGI with MALME-3M melanoma amounted to 49.7 µM; in the test with HT29 colon it was 35.4 µM; in the test with HCT-15 colon it was 34.4 µM; in the test with SF-295 CNS, 86.4 µM; in the test on NCI-H23 lung, 41.6 µM; with CCRF-CEM leukemia, 56.5 µM.

Regarding `N#Cc1cc(S(=O)(=O)Nc2nc3cc(Cl)ccc3o2)c(SCc2ccccc2)cc1Cl`, the GI50 was 17.3 µM in the test on HT29 colon; 16.2 µM in the test with HCT-15 colon; 13.8 µM in the test on NCI/ADR-RES ovarian; 14.5 µM with SF-295 CNS; 17.8 µM in the test with NCI-H226 lung; 15.6 µM with NCI-H23 lung. For the same molecule, the GI50 was 15.1 µM in the test with PC-3 prostate and 14.1 µM in the test with CCRF-CEM leukemia. Also, the TGI is 31 µM in the test with HT29 colon; 29.7 µM in the test on HCT-15 colon; 26.7 µM in the test with NCI/ADR-RES ovarian; 28 µM in the test with SF-295 CNS; 43.4 µM in the test with NCI-H226 lung; 28.9 µM in the test with NCI-H23 lung. In addition, the TGI in the test on PC-3 prostate came out at 28.3 µM; with CCRF-CEM leukemia it was 27.1 µM.
